# According to ChEMBL document CHEMBL1201862, “PubChem BioAssay data set” (2004):
#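 96-well plates; 48 h exposure; 5 concentrations. Endpoints by linear interpolation between flanking doses. Not reached: highest tested concentration assigned. The concentration for 50% growth inhibition is given as GI50.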 The source made the active and inactive calls. No stated cut-off is given here; in the data, active = GI50 up to about 1.1 µM and inactive = higher. Residues, ends and D or L forms follow the SMILES beside them.
# How the values were obtained:
# Experiment in all cases: NCI tumour cell line growth inhibition, 48 h
# [1] = test system: A549
# [2] = test system: ACHN
# [3] = test system: CAKI-1
# [4] = test system: DU-145
# [5] = test system: EKVX
# [6] = test system: HCT-116
# [7] = test system: HOP-62
# [8] = test system: MCF7
# [9] = test system: MDA-N
# [10] = test system: NCI-H522
# [11] = test system: NCI/ADR-RES
# [12] = test system: OVCAR-3
# [13] = test system: OVCAR-4
# [14] = test system: OVCAR-5
# [15] = test system: OVCAR-8
# [16] = test system: RPMI-8226
# [17] = test system: SF-295
# [18] = test system: SNB-19
# [19] = test system: SNB-75
# [20] = test system: UO-31
SMILES,GI50 [1],GI50 [2],GI50 [3],GI50 [4],GI50 [5],GI50 [6],GI50 [7],GI50 [8],GI50 [9],GI50 [10],GI50 [11],GI50 [12],GI50 [13],GI50 [14],GI50 [15],GI50 [16],GI50 [17],GI50 [18],GI50 [19],GI50 [20]
O=c1c2ccccc2nc(-c2ccccc2)n1O,71.8 µM (inactive),> 100 µM (inactive),8.47 µM (inactive),> 100 µM (inactive),> 100 µM (inactive),55.8 µM (inactive),5.28 µM (inactive),95.9 µM (inactive),> 100 µM (inactive),> 100 µM (inactive),32.4 µM (inactive),51.6 µM (inactive),55.5 µM (inactive),> 100 µM (inactive),51.5 µM (inactive),28.6 µM (inactive),35.3 µM (inactive),> 100 µM (inactive),87.3 µM (inactive),8.53 µM (inactive)
CC1(C)CC2C=C(C=O)C3(C=O)CC3(C)C2C1 (stereo not given),10.2 µM (inactive),1.49 µM (inactive),2.05 µM (inactive),5.45 µM (inactive),3.4 µM (inactive),0.847 µM (active),2.09 µM (inactive),1.34 µM (inactive),2.9 µM (inactive),1.09 µM (active),1.76 µM (inactive),0.944 µM (active),1.73 µM (inactive),1.79 µM (inactive),1.95 µM (inactive),0.378 µM (active),4.5 µM (inactive),11.8 µM (inactive),1.89 µM (inactive),1.69 µM (inactive)
CC(NC(=N)N)C(=O)O (stereo not given),> 100 µM (inactive),> 100 µM (inactive),> 100 µM (inactive),> 100 µM (inactive),> 100 µM (inactive),> 100 µM (inactive),> 100 µM (inactive),> 100 µM (inactive),> 100 µM (inactive),> 100 µM (inactive),> 100 µM (inactive),> 100 µM (inactive),> 100 µM (inactive),> 100 µM (inactive),> 100 µM (inactive),> 100 µM (inactive),> 100 µM (inactive),> 100 µM (inactive),> 100 µM (inactive),> 100 µM (inactive)
CC(=O)NC(CO)C(=O)NC(Cc1ccc(O)cc1)C(=O)NCC(N)=O (stereo not drawn) (Ac-Ser-Tyr-Gly-NH2; configuration not given here),> 100 µM (inactive),> 100 µM (inactive),> 100 µM (inactive),> 100 µM (inactive),> 100 µM (inactive),> 100 µM (inactive),> 100 µM (inactive),> 100 µM (inactive),> 100 µM (inactive),74.5 µM (inactive),> 100 µM (inactive),> 100 µM (inactive),> 100 µM (inactive),> 100 µM (inactive),> 100 µM (inactive),> 100 µM (inactive),> 100 µM (inactive),> 100 µM (inactive),> 100 µM (inactive),> 100 µM (inactive)
